This note sets out measurements from a melting point compilation (Tetko et al.; mined from patent text by program, amines drawn as free bases though some values may be those of a salt).

`c1ccc(COc2ccc(-c3cc(NC(Cc4ccccc4)c4nnn[nH]4)ncn3)cc2)cc1` (centres undefined) returned a melting point of 150 °C. As to `CC(CS)C(=O)N1CCC=C1C(=O)O` (centres undefined), the melting point fell in the range of 112 to 114 °C.

In the case of `O=c1c2c(Cc3ccc(C(F)(F)F)cc3)n[nH]c2c2cccnc2n1-c1cccc(OC(F)(F)F)c1`, the melting point is 227 to 231 °C.

For `CC(=O)OCC(=O)C1C(C)CC2C3CC(Cl)C4=CC(=O)C=CC4(C)C3=CCC21C` (centres undefined), the melting point worked out at 181 °C. Turning to `O=C1C(=CO)C(c2ccc(Cl)cc2)c2ccc(Cl)cc21` (centres undefined), the melting point was in the range of 122 to 124 °C. As for `CC(=O)OC1CSC(Oc2cccc(-c3ccncc3)c2)C(OC(C)=O)C1OC(C)=O` (centres undefined), the melting point came out at 112 °C. The value for `COC(=O)Cc1nsc(NC(=O)OCc2ccccc2)n1` was 121 to 123 °C. For the compound `CC(=O)OCC(=O)C1(OC(C)=O)C(C)CC2C3CC(C)C4=CC(=O)CCC4(C)C3(F)C(O)CC21C` (centres undefined), the melting point lay within 194 to 195 °C. As for `Cc1cc(SCc2ccccc2)ccn1`, the melting point was in the range of 69 to 70 °C. The value for `O=C1C(=O)N2CCCc3cc([N+](=O)[O-])cc1c32` was 198 to 199 °C; that for `O=C(O)CCc1ccc(C(=O)CCl)cc1` was 151 to 153 °C.

For the compound `O=C(CCl)NN1CCOC(c2ccccc2)(c2ccccc2)CC1`, the melting point is 150 to 152 °C. Compound `COc1nc2cc(Br)c(Br)c(NS(C)(=O)=O)c2nc1OC` registered a melting point of 186 to 187 °C. In turn, `Cc1nc(-n2ccc(O)cc2=O)sc1C(=O)NCc1ccc(F)cc1` displayed a melting point of 280 to 282 °C.

In turn, `Cc1cc(CN2N=C(C(F)(F)C(F)(F)F)NC2(O)c2ccc(Cl)cc2)ccc1[N+](=O)[O-]` (centres undefined) came in with a melting point of 90 to 92 °C. In turn, `CCCOc1ccccc1-c1nc(C)cc(O)n1` yielded a melting point of 109 to 110 °C. `NCCCCOc1ccc2c(c1)NC(=O)C(CC(=O)O)C2` (centres undefined) registered a melting point of 229 to 230 °C. For `COc1cc(C)nc(NC(=O)NS(=O)(=O)c2cccc3c2OS(=O)(=O)C(C)C3)n1` (centres undefined), the melting point lay within 215 to 218 °C. Compound `CCc1noc(-c2ncn(-c3cccc(Cl)c3)c2COC)n1` displayed a melting point of 125 to 126 °C. Regarding `COc1cc(C(=O)Nc2c(C)cccc2C)nn1C`, the melting point is 144 °C. With `O=Cc1c[nH]c2c1ccc1c3cc(F)ccc3[nH]c12`, the melting point is above 250 °C. Regarding `Cc1cccc(-c2cc(C(=O)NCCCCCCCc3ccccc3)cc(-c3cccc(C)c3)c2OCC(=O)O)c1`, the melting point was 58 to 62 °C. `N#Cc1ccc(-c2cn(-c3ccc(C#N)cc3)c(SCc3ccccn3)n2)cc1` showed a melting point of 164 to 170 °C.

Consider `CC1(C)OC(=O)Nc2ccc(-c3cncc(Br)c3)cc21`, for which the melting point fell in the range of 211 to 212 °C. Then `CCOc1cc(C=CC(C)=O)ccc1O`, with 98 to 100 °C; and `CC(C)=CC=C(C#N)c1ccccc1`, with 66 to 67 °C. The value for `O=S1(=O)N=C(Nc2ccccn2)Nc2ccc(Cl)cc21` was above 310 °C; that for `Cc1cc(-c2c(-c3ccccc3)nc3ccc(N4CCC5(CCCNC5)CC4)nn23)ccn1` was 175 to 179 °C; that for `Fc1ccc(-n2cc(C3CCN(CCN4CCNC4=S)CC3)c3ccc(Cl)cc32)cc1` was 184 to 186 °C. The value for `OCCNC(=S)NC1CCc2ccccc2C1` (centres undefined) was 89 to 91 °C; that for `CCCCc1oc2ccccc2c1/C=N/OCCCOc1ccc(CC(=O)O)cc1` was 181 to 182 °C; that for `COc1ccc2nc(C3(OC)C=CC(=NS(=O)(=O)c4ccc(C)cc4)C=C3)sc2c1` (centres undefined) was 166 to 168 °C. `CCC(=O)Oc1ccc(-c2nc(-c3ccc(N(C)C)cc3)c(C)[nH]2)cc1OC` returned a melting point of 244 to 246 °C. Then `CC(=O)c1ccc(S)cc1OCC(=O)O`, with 149 to 150 °C; and `CCOC(=O)C=Cc1ccc(O)c(C(F)(F)F)c1C(F)(F)F`, with 138 to 140 °C; and `Cn1c(S)nc(-c2ccncc2)cc1=O`, with 250 to 252 °C. `CC(=O)Nc1cccc(Oc2cc(-c3ccc(C(F)(F)F)cc3)ncn2)c1`: the melting point lay in the range of 202 to 205 °C. The value for `Nc1ccc(S(=O)(=O)Nc2nnc(CO)s2)cc1` was 89 to 90 °C. For `CCOC(=O)C(=C(NC)NCc1ccc(Cl)nc1)[N+](=O)[O-]`, the melting point was in the range of 231 to 233 °C. Then `CCC(=CC(CSc1nnnn1-c1ccccc1)=NO)C(C)[N+](=O)[O-]` (centres undefined), with 66 to 69 °C; and `Cc1nc2ccccn2c(=O)c1CCN1CCC(Nc2nc3cncnc3n2Cc2cnccn2)CC1`, with 180 °C. In the case of `C#CCN1CCc2cc(OC)c(O)c3c2C1Cc1cc(OC)c(OC)cc1-3` (centres undefined), the melting point lay in the range of 135 to 150 °C. For the compound `Cc1ccc(S(=O)(=O)N(C)c2ccc(O)cc2)cc1[N+](=O)[O-]`, the melting point is 173 to 174 °C. Then `CC(C)Oc1ccc(NC(=O)OCc2cc3cc(-c4ccc(F)cc4)ccc3o2)c(C(=O)O)c1`, with 195 to 196 °C. In the case of `COc1ccc(CN2C(=O)C3(COc4cc5onc(N)c5cc43)c3ccccc32)cc1` (centres undefined), the melting point is 214 to 216 °C. `CCCc1nc(C)cc(=O)n1CCOc1ccc(C=C2SC(=O)NC2=O)cc1` gave a melting point of 240 to 242 °C. For the compound `COc1cccc(CC[C@H]2CN(Cc3ccccc3)CCN2Cc2ccccc2)c1`, the melting point lay within 73 to 75 °C.

`Nc1ncc2c(n1)CCC(NC(=O)[C@@H]1CCCN1C(=O)[C@@H](Cc1ccccc1)NS(=O)(=O)Cc1ccccc1)C2` (some centres undefined) returned a melting point of 117 to 120 °C. In turn, `CCCCCCCCc1cc2c(s1)NC(=O)CN=C2c1ccccc1OC` returned a melting point of 128 to 130 °C. In the case of `N#Cc1ccsc1-c1[nH]c(=O)c(-c2ccccc2)cc1C(=O)O`, the melting point was 255 to 257 °C. In turn, `Cc1nc(NC(=O)c2cnn3c(C(F)(F)F)cc(-c4ccc(C(F)(F)F)cc4)nc23)sc1S(=O)(=O)N1CCN(C)CC1` displayed a melting point of 273 °C. The value for `C#CCOc1cc(-n2nc3ccc(Cl)cn3c2=O)c(F)cc1C#N` was 209 to 211 °C; that for `CCN(CC)C(=O)CN1C(=O)C(NC(=O)Nc2ccc(Cl)cc2)N=C(c2ccccc2)c2ccccc21` (centres undefined) was 284 to 285 °C; that for `COC(=O)CCCc1n[nH]c(=O)c2cc(OC)ccc12` was 175 to 177 °C.

`Cc1cc(=O)c(C(=O)OC2CCCCC2)nn1-c1ccc(Cl)cc1` registered a melting point of 160 to 162 °C.

For the compound `COc1cc2sc(C(=O)O)c(Cl)c2cc1OC`, the melting point is above 260 °C. Then `CN(C)C(=O)CN1CCC(c2ccc(Nc3nc4c(-c5ccc[nH]c5=O)cccn4n3)cc2)CC1`, with above 250 °C; and `OCCn1cc(C(F)(F)F)nc1-c1ccc(O)cc1`, with 186 to 188 °C. Turning to `N=C(NO)c1ccc(-c2ccc(-c3ccc(C(=N)NO)o3)o2)cc1`, the melting point fell in the range of 205 to 206 °C.

Turning to `CCOC(=O)CC(=O)c1cc(Oc2ccccc2)c(NS(C)(=O)=O)cc1OCc1ccccc1`, the melting point was in the range of 85 to 90 °C.

`CCc1c(C)c(NC(=O)CC(C)(C)C)c(C)c2c1S(=O)CC2c1ccc(C(C)C)cc1` (centres undefined) returned a melting point of 195 to 196 °C.

Consider `CCC(OC(=O)C1CC1)c1ccc(Cl)c2nc3n(c12)CCCN3c1ccc(OC)nc1C` (centres undefined), for which the melting point was 149 to 151 °C. Consider `CC(C)(C)c1nc2cc(N3CCN(S(C)(=O)=O)CC3)c(N)cc2s1`, for which the melting point lay in the range of 153 to 155 °C. `COc1nc2c(c3ccccc13)c1cc(Cl)ccc1n2C` yielded a melting point of 179 to 180 °C.

Turning to `CC1(C)CC(=O)CC(C)(C)N1C#N`, the melting point was in the range of 75 to 76 °C. `CCCC1(CCC)CC1(CN)C(=O)O` (centres undefined): the melting point was in the range of 255 to 257 °C. In turn, `COc1cc(OC)cc(N2CCN(C(=O)Nc3cc4ccccc4nc3OC)CC2)c1` returned a melting point of 200 to 201 °C.

In turn, `COc1c(C)c(C)c(OC)c(C(CCCC(=O)O)c2cccnc2)c1C` (centres undefined) displayed a melting point of 82 to 84 °C. `CCOC(=O)C(CSC12CC3CC(CC(C3)C1)C2)NC(C)C(=O)O` (centres undefined) showed a melting point of 68 to 72 °C.

For the compound `CC1(CNCc2cc3cc(NC(=O)c4ccc(OCC5CC5)cc4)ccc3[nH]2)COC1`, the melting point lay within 166 to 167 °C.

Take `COc1cc(C(C)(C)C)c(O)c(C(=O)Nc2ccc(S(=O)(=O)C(F)(F)F)cc2Cl)c1C`: the melting point was in the range of 121 to 122 °C. Compound `Cc1nc(-n2cc(CCc3ccccc3)nn2)sc1C(=O)NCc1cccnc1` displayed a melting point of 114 to 116 °C. Compound `CN(C(=O)Nc1ccc(Oc2ccccc2)cc1)C(Cl)C(Cl)(Cl)Cl` (centres undefined) registered a melting point of 160 to 162 °C. In the case of `CCCCCCN=C1SC(=CC(=O)O)C(=O)N1CCCCCC`, the melting point was 66 to 69 °C. `CN1C(=O)CC2(CCc3cc4ccccc4n3C2)C1=O` (centres undefined) displayed a melting point of 158 to 164 °C. Take `[O-][N+]1=C(c2ccccc2)c2cc(C(F)(F)F)ccc2-n2c(CBr)nnc2C1`: the melting point lay in the range of 185 to 210 °C. `Nc1nc2ccccc2c2c1nc(CO)n2CC1(O)CCOCC1`: the melting point was above 250 °C. As for `CCCCS(=O)(=O)N(Cc1ccc(-c2ccccc2-c2nnn[nH]2)cc1)[C@@H](C)C(=O)O`, the melting point was 90 °C. Consider `Cc1ccc2c(O)ccnc2c1`, for which the melting point was 233 to 235 °C. In the case of `O=[N+]([O-])C=C1SCCN1Cc1ccc(Cl)nc1`, the melting point is 177 to 179 °C. For `CCC(=O)OCc1cc2c3ccccc3[nH]c(=O)n2n1`, the melting point was in the range of 184 to 186 °C. On to `CN(C)CCOc1cnc(Nc2cc(-c3cccc(-n4ncc5cc(C(C)(C)C)cc(F)c5c4=O)c3CO)nn(C)c2=O)cn1`, for which the melting point fell in the range of 185 to 190 °C. With `Nc1ccc(C2CC2)cc1C(=O)O`, the melting point stood at 158 °C.

Compound `CC1CCCC2C1N2CC(O)Cn1ccnc1[N+](=O)[O-]` (centres undefined) displayed a melting point of 124 °C.

For the compound `CC(=O)N1CCc2cc3c(cc21)C(=O)C(=O)N3`, the melting point is above 250 °C.

In turn, `Cc1ccc(-c2nccc3c(C#N)cccc23)cc1` displayed a melting point of 132 °C. The compound `CCOc1c(OC)ccc2nc3[nH]cnc(=O)c3cc12` came in with a melting point of 348 to 349 °C.

In turn, `CCC1=C([N+](=O)[O-])C(c2cccc(Cl)c2Cl)c2c[nH]nc2N1` (centres undefined) registered a melting point of 250 °C. The compound `CCOc1cc2c(c3c1[nH]c1ccc(O)cc13)C(=O)N(CCN(C)C)C2=O` returned a melting point of 260 to 261 °C.

In general, melting point refers to the temperature of the solid-liquid transition.
